One data set relates to HIV-HXB2. Kind of data set: Antiviral assay: protection of HIV-infected MT4 cells from cell death (MTT). The format is cell-based. The note with it: Human immunodeficiency virus 1, 120 h; MT4 cells infected with HIV-HXB2; 5 days; MTT viability; rounded to nearest whole number. Here is the method: Methods 20: 309-321]. The method is based on the ability of compounds to protect HIV-infected T lymphoblastoid cells (MT4 cells) from cell-death mediated by the infection. The endpoint of the assay was calculated as the concentration of compound at which the cell viability of the culture was preserved by 50% (‘50% inhibitory concentration’, IC50). The cell viability of a culture was determined by the uptake of soluble, yellow 3-[4,5-dimethylthiazol-2-yl]-2,5-diphenyltetrazolium bromide (MTT) and its reduction to a purple insoluble formazan salt. After solubilization, spectrophotometric methods were employed to measure the amount of formazan product.
MT4 cells were prepared to be in logarithmic-phase growth and a total of 2×10^6 cells infected with either the wild type or site directed mutant clones of HIV-HXB2 at a multiplicity of approximately 0.0001 infectious units of virus per cell in a total volume of between 200-500 μl. The cells were incubated with virus for one hour at 37° C. then washed in 0.01 M phosphate buffered saline, pH 7.2, and resuspensed in culture medium for incubation in culture with serial dilutions of test compound. The culture medium used was RPMI 1640 without phenol red, supplemented with penicillin, streptomycin, L-glutamine and 10% fetal calf serum (GM10).
Test compounds were prepared as 2 mM solutions in dimethyl sulphoxide (DMSO). Four replicate, serial 2-fold dilutions in GM10 were then prepared and 50 microliter amounts placed in 96-well plates over a final concentration range of […]. Fifty microliters GM10 and 3.75×10^4 infected cells were then added to each well. Control cultures containing no cells (blank), uninfected cells (100% viability; 4 replicates) and infected cells without compound (total virus-mediated cell death; 4 replicates) were also prepared. The cultures were then incubated at 37° C. in a humidified atmosphere of 5% CO2 in air for 5 days.
A fresh solution of 5 mg/mL MTT was prepared in 0.01 M phosphate buffered saline, pH 7.2 and 20 μL added to each culture. The cultures were further incubated as before for 2 hours. They were then mixed by pipetting up and down, and 170 microliters of Triton X-100 in acidified isopropanol (10% v/v Triton X-100 in 1:250 mixture of concentrated HCl in isopropanol) were added and the cultures were mixed again by pipetting up and down. When the formazan deposit was fully solubilized by further mixing, the absorbance (OD) of the cultures was measured at 540 nm and 690 nm wavelength (690 nm readings were used as blanks for artefacts between wells). The percent protection for each treated culture was then calculated from the equation:
OD drug-treated cultures)−(OD untreated virus control cultures) % Protection=100%
(OD uninfected cultures)−(OD untreated virus control cultures)
The IC50 was then obtained from graph plots of percentage protection versus log10 drug concentration.

The target in another data set is HIV-1 protease (Human immunodeficiency virus type 1 group M subtype B, UniProt P04585). Kind of data set: HIV protease inhibition assay (quenched fluorogenic substrate, fluorescence energy transfer).

Protocol for HIV-1 protease: HIV protease inhibitory activity was assessed using an adaptation of the method of Matayoshi. et al. [Matayoshi E. D. et al (1990).
Crude HIV-1 protease was prepared from E. coli pPTΔN. Cultures were grown at 30° in M9 medium supplemented with 0.2% casamino acids, 100 μg/ml ampicillin and 25 μg/ml thiamine until OD600=0.5-0.6, and the temperature was raised to 42° to induce expression of the protease. After 1.5 hours, the cells were harvested and the pellets stored at −70° until required.
The protease was prepared by lysis of the cells in a French pressure cell followed by precipitation of the enzyme with ammonium sulfate at 30% saturation.
The assay buffer comprised 0.1M sodium acetate pH 4.7, 8 mM EDTA, 0.2 M NaCl.
Tubes were incubated for 2 hours at 37° and the reaction was terminated by the addition of 500 μl of a 2:1 mixture of DMSO:50 mM Tricine pH 8.5. Fluorescence was measured in a fluorescence spectrophotometer, excitation λ=340 nm, emission λ=492 nm.

Usually IC50 stands for the concentration at which inhibition is half-maximal. In general, melting point refers to the temperature, or range, at which the solid turns liquid. On to `CC(C)(C)NC(=O)[C@@H]1C[C@@H]2CCCC[C@@H]2CN1C[C@@H](O)[C@H](Cc1ccccc1)NC(=O)CC(C)(C)S(C)(=O)=O` [Example 95, N-tert-Butyl-1,2,3,4,4a(S),5,6,7,8,8a(S)-decahydro-1-[2(R)-hydroxy-3(S)-[3-(methanesulfonyl)butyramido]-4-phenylbutyl]-2(S)-piperazinecarboxamide], for which the melting point fell in the range of 95 to 110 °C. The compound also came in with an IC50 in the data set with HIV-HXB2 of 250 nM. The compound further came in with an IC50 on HIV-1 protease of 61 nM.

Turning to `COC(=O)N[C@H](C(=O)N[C@@H](Cc1ccccc1)[C@H](O)CN1C[C@H]2CCCC[C@H]2C[C@H]1C(=O)NC(C)(C)C)C(C)(C)S(C)(=O)=O` [Example 4, N-tert-Butyl-1,2,3,4,4a(S),5,6,7,8,8a(S)-decahydro-2-[2(R)-hydroxy-3(S)-[[3-(methanesulfonyl)-N-(methoxycarbonyl)-L-valyl]amino]-4-phenylbutyl]-3(S)-isoquinolinecarboxamide], the melting point lay within 190 to 194 °C. Besides, inhibition in the data set with HIV-HXB2 was half-maximal at 14 nM (IC50). At HIV-1 protease, this compound returned an IC50 of 2.8 nM.

The values are drawn from patent publication US6472404B1 (priority 2000, dated 2002).
